Results on seven molecules are retold here after patent publication US9931373B2, “Method of reducing cancer cell proliferation by administering recombinant alpha-fetoprotein” (priority 2005, dated 2018).

For one assay, the target named is T1, rhAFP (Homo sapiens, UniProt P02771).
T1 construct: pre-pro secretion region of yeast MFalpha1 (secretion leader, removed on secretory processing) (N, cleaved yes); made in house; host or cells: Saccharomyces cerevisiae YBS723/pKX (secreted into the culture liquid)
T1 sequence (P02771 20-609): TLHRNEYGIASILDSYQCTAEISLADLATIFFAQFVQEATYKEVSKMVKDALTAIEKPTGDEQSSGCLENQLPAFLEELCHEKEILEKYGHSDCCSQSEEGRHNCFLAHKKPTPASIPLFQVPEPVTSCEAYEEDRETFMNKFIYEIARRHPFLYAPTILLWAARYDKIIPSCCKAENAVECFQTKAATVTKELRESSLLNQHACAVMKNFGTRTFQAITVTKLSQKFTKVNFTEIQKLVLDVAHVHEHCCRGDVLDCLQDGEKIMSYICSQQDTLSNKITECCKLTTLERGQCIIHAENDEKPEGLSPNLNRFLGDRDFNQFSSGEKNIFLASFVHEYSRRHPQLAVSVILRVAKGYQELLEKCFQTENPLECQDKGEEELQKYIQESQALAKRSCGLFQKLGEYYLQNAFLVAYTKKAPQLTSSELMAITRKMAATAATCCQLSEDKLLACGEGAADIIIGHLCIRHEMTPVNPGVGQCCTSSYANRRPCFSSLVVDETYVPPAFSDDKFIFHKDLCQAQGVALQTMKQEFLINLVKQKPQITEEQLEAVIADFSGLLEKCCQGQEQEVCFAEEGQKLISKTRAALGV
The assay can be described thus: Formation of noncovalent complexes with rhAFP, absorption spectra and Sephadex G-25. Type of assay: binding. The note with it: steady-state absorption; curcumin 30 μM, rhAFP 5 μM to 40 μM, FIG. 12A. The protocol: Absorption spectra of aqueous solutions containing 30 μM of curcumin and various doses of rhAFP: (1) 30 μM of curcumin; (2) 30 μM of curcumin+20 μM rhAFP; (3) 30 μM of curcumin+40 μM rhAFP. Panel at the top (A): absorption spectra of non-covalent complex of rhAFP/curcumin after chromatography through a column with Sephadex G-25.
Phytochemicals are nonnutritive components of plants that are currently being studies in chemoprevention and combined therapy of cancer. […] Other plant-derived tumoricidal compounds—flavonoids, isoflavonoids, flavons, flavanones, isoflavanones have been widely investigated for their ability to suppress tumor growth in vitro. Some of them display significant homology with steroids and mimic reveal antagonistic or agonistic activity in mammals. Ability of AFP to bind isoflavanoids was documented by various researches (Deutsch H. F, 1991, Adv. Canc. Res. 56, 253-312). […] The absorption spectra of solutions containing curcumin and rhAFP were followed keeping concentration of curcumin constant 30 μM and rhAFP varied from 5 μM to 40 μM. […] FIG. 12A gives the absorption spectral changes in curcumin in the presence of rhAFP in the wavelength range of 250-550 nm. […] Whereas after addition of rhAFP the maximum of absorbance of curcumin blue-shifted from 426 to 350 nm (curve 3). […]

In another assay the test system is tumor cells. The assay is described as follows: Combined administration of rhAFP and plant-derived compounds, suppression of tumor cell growth. Type of assay: cell-based. As to conditions: FIG. 12B, C.
Assay [1] relates to syngeneic leukemia cells P388. The assay can be described thus: Syngeneic acute leukemia P388 in BDF1 mice, survival over 30 days. Type of assay: in vivo. As to conditions: for T (survival, days): single injection. From the text: We have studied the effect of combined treatment with AFP+Dox of acute leukemia in mice BDF1 with transplanted intrapleurally syngeneic P388 leukemia cells. BDF-1 mice (84 male, 28 mice per treatment) were implanted with lethal dose of 12×10^6 syngeneic leukemia cells P388 in the pleural region. Animals were subjected to monotherapy with Dox and combined therapy with rhAFP/Dox upon simultaneous single injection of drugs in various doses. Animal survival was compared over 30 days.

In assay [2] the test system is Human breast cancer cells MCF-7. The assay is described as follows: Combined treatment of MCF-7 cells with chemotherapeutic agents and rhAFP, MTT or H3-thymidine. It counts as cell-based. The note with it: MCF-7, 72 hrs, agent with addition of 0.1 mg/ml of rhAFP, suboptimal doses, FIG. 8. The procedure: Cell proliferation was assessed by H3-thymidine incorporation assay or by MTT technique.
Human breast cancer cells MCF-7 were plated onto 96-well plastic wells (Costar) in 10^4 cells/ml in DMEM medium with addition of 2% fetal calf serum and were treated during 72 hrs with one of chemotherapeutic agents: doxorubicin, cysplatin, etoposide, metatrexate or those with addition of 0.1 mg/ml of rhAFP. Cytotoxic effect was estimated by MTT assay or H3-thymidine incorporation assay. It was observed synergistic enhance of the total tumor-suppressive effect in suboptimal doses of all agents in the presence of AFP (FIG. 8).

The subject of assay [3] is cells of B-cellular lymphoma Raji. The assay can be described thus: Suppression of growth of Raji cells in vitro, [H3]-thymidine incorporation. As to conditions: 12 hours with AFP, dose-dependent, FIG. 5. Type of assay: cell-based, human. The procedure:
The functional activity of rAFP and the modified forms thereof were determined according to its capability of suppressing the growth of cells of B-cellular lymphoma Raji in the culture in vitro, as earlier described (Semenkova, L. 1997, Tumor Biol. 18, 261-274; Dudich E. I., et al., 1998, Tumor Biol. 198, 30-40). Preliminarily washed by a fresh medium, Raji cells were placed into each cell of a 96-alverolar plate according to 5×10^3 in 0.1 ml of a medium RPMI-1640 in the presence of a 10% fetal calf serum, then different doses of AFP were added for 12 hours. Proliferation of the cells was measured by a standard method by the introduction of [H^3]-thymidine during the last 4 hours of culturing. For comparison, the dose-dependent reactivity was studies for two samples of AFP of embryonal origin embrAFP and yeast rAFP (FIG. 5). […] Similarly, in order to determine the activity to preparations on the base of AFP in vitro, any other lines of cancer cells may be used that are sensitive to the suppressive action of AFP, such as human hepatocarcinoma HepG2, breast cancer MCF-7, prostate cancer LnCap, myeloblastoma U-937 and others (Semenkova, L. 1997, Tumor Biol. 18, 261-274; Dudich E. I., et al., 1998, Tumor Biol. 198, 30-40).
On the technique in general: Dividing cells build labelled thymidine or BrdU into new DNA.

Regarding `COc1cc(/C=C/C(=O)CC(=O)/C=C/c2ccc(O)c(OC)c2)ccc1O` [curcumin], the “formation of noncovalent complexes with rhAFP” value at rhAFP is “form noncovalent complexes”. Moreover, the “total tumor suppressive effect upon combined treatment with rhAFP” value in the assay with tumor cells was “significant enhance of the total tumor suppressive effect”.
Consider `COc1cccc2c1C(=O)c1c(O)c3c(c(O)c1C2=O)C[C@@](O)(C(=O)CO)C[C@@H]3O[C@H]1C[C@H](N)[C@H](O)[C@H](C)O1` [Dox, doxorubicin], for which, in assay [1] (Dox 3.0 mg/kg), the “Survival more 30 days” value is on record as 0; the T/C % came to 303%; the “T (survival, days)” value is “[13.9/17.1] 19.7 days”. In addition, in assay [1] (Dox 5.0 mg/kg), the “Survival more 30 days” value amounted to 0; the T/C % was found to be 315%; the “T (survival, days)” value was “[17.0/22.4] 20.5 days”. For the same molecule, in assay [1] (Dox 1.o mg/kg), the “Survival more 30 days” value worked out at 0; the T/C % was 238%; the “T (survival, days)” value is 6.5 [6.2/6.8] 15.5 days. Besides, in assay [2], the “total tumor-suppressive effect of agent together with rhAFP” value (from here on “total tumor-suppressive effect”) was “significant synergistic tumor-suppression”.
With `O=c1c(-c2ccc(O)cc2)coc2cc(O[C@@H]3O[C@H](CO)[C@@H](O)[C@H](O)[C@H]3O)cc(O)c12` [genistin], the “formation of noncovalent complexes with rhAFP” value at rhAFP is on record as “form noncovalent complexes”. Besides, the “total tumor suppressive effect upon combined treatment with rhAFP” value in the assay with tumor cells is “significant enhance of the total tumor suppressive effect”.
For `CN(Cc1cnc2nc(N)nc(N)c2n1)c1ccc(C(=O)N[C@@H](CCC(=O)O)C(=O)O)cc1` [metatrexate], the “total tumor-suppressive effect” value in assay [2] was “significant synergistic tumor-suppression”.
In the case of `N.N.[Cl][Pt][Cl]` [cysplatin], in assay [2], the “total tumor-suppressive effect” value is reported as “significant synergistic tumor-suppression”.
The same measure, in the same setting: in the case of `COc1cc([C@@H]2c3cc4c(cc3[C@@H](O[C@@H]3O[C@@H]5CO[C@@H](C)O[C@H]5[C@H](O)[C@H]3O)[C@H]3COC(=O)[C@H]23)OCO4)cc(OC)c1O` [etoposide] it was “significant synergistic tumor-suppression”.

B1: embrAFP: purified AFP of embryonal origin, obtained from embryonic serum (protein, UniProt P02771 19-609, looked up)
Alpha-fetoprotein: RTLHRNEYGIASILDSYQCTAEISLADLATIFFAQFVQEATYKEVSKMVKDALTAIEKPTGDEQSSGCLENQLPAFLEELCHEKEILEKYGHSDCCSQSEEGRHNCFLAHKKPTPASIPLFQVPEPVTSCEAYEEDRETFMNKFIYEIARRHPFLYAPTILLWAARYDKIIPSCCKAENAVECFQTKAATVTKELRESSLLNQHACAVMKNFGTRTFQAITVTKLSQKFTKVNFTEIQKLVLDVAHVHEHCCRGDVLDCLQDGEKIMSYICSQQDTLSNKITECCKLTTLERGQCIIHAENDEKPEGLSPNLNRFLGDRDFNQFSSGEKNIFLASFVHEYSRRHPQLAVSVILRVAKGYQELLEKCFQTENPLECQDKGEEELQKYIQESQALAKRSCGLFQKLGEYYLQNAFLVAYTKKAPQLTSSELMAITRKMAATAATCCQLSEDKLLACGEGAADIIIGHLCIRHEMTPVNPGVGQCCTSSYANRRPCFSSLVVDETYVPPAFSDDKFIFHKDLCQAQGVALQTMKQEFLINLVKQKPQITEEQLEAVIADFSGLLEKCCQGQEQEVCFAEEGQKLISKTRAALGV
Regarding B1, the “cytostatic activity, inhibition of growth of Raji cells” value in assay [3] was “expressed cytostatic activity”.
